Experimental data published in PMC9863764, “Roles of Human Liver Cytochrome P450 Enzymes in Tenatoprazole Metabolism” (Pharmaceutics, 2022).
Values joined by “and” are separate entries in the source; they are usually repeats but may differ in a detail not shown here. Equal values may be shown once.

How the values were obtained:
[1] = target: T1, human CYP2C19 (Homo sapiens, UniProt P33261); set-up: method as in earlier work; conditions: in vitro; cited from earlier work
T1 construct: made in house; host or cells: Escherichia coli (membrane fractions)
T1 sequence (P33261 whole entry): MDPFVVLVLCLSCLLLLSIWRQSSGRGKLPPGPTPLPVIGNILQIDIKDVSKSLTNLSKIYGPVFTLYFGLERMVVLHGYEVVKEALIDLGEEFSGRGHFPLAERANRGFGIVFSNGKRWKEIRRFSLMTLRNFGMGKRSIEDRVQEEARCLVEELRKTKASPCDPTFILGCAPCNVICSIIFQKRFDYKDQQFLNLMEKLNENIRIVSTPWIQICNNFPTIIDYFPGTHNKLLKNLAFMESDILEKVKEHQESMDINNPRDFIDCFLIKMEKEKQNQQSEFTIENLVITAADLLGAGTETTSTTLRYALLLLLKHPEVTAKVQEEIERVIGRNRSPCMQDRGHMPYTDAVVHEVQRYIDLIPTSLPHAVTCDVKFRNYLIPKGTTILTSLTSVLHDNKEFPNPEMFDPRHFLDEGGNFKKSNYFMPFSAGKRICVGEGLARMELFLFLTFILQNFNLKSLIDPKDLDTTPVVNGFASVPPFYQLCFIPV

[2] = target: T2, human CYP3A4 (Homo sapiens, UniProt P08684); experiment: Sulfoxidation of tenatoprazole sulfide by recombinant CYP3A4 (chiral chromatography); format: in vitro ADME; conditions: substrate tenatoprazole sulfide, recombinant CYP3A4, chiral chromatography; label = product formed
T2 construct: made in house; host or cells: Escherichia coli (membrane fractions)
T2 sequence (P08684 whole entry): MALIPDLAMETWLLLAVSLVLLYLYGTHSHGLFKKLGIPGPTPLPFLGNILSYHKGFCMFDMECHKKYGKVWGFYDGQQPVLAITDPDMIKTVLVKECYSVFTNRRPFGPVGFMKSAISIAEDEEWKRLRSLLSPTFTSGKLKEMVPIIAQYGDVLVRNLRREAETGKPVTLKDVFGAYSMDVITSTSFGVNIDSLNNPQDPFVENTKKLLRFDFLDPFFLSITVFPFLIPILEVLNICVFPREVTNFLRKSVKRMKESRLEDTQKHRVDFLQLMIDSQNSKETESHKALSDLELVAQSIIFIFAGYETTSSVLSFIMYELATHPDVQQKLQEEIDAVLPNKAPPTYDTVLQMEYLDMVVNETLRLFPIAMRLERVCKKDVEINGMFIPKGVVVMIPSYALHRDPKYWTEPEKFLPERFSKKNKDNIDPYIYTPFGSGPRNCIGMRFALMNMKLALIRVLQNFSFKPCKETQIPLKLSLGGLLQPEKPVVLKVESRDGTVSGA
Procedure: The sulfoxidation reaction of tenatoprazole sulfide by CYP3A4 was measured by chiral chromatography. […] The reaction was initiated by adding NGS at 37 °C. […] After the residues were solubilized in 180 μL mobile phase, 30 μL samples were injected onto a Chiralpak AD column (4.6 × 150 mm, 10 μm; Daicel Corporation, Osaka, Japan) with a hexane-ethanol mixture (30:70, v/v) as the mobile phase. The products formed were analyzed by HPLC at […]. […] The kinetic parameters (kcat and Km) were determined by using a Michaelis-Menten nonlinear regression analysis with GraphPad Prism (GraphPad Software, San Diego, CA, USA).

[3] = target: T1, human CYP2C19; experiment: Steady-state kinetics of tenatoprazole oxidation by recombinant CYP2C19; format: in vitro ADME
Procedure: Pooled liver microsomes from human samples were obtained from ThermoFisher Scientific (Waltham, MA, USA). […] Membrane fractions expressing both P450 and CPR of E. coli were prepared as described previously and were used for the catalytic activity assays. […] The reaction was started by adding NGS and the incubation was continued for the indicated time at 37 °C. Incubation was then stopped by adding ice-chilled ethyl acetate (0.50 mL) and omeprazole (IS) was added to a final concentration of 20 μM. […] Phenomenex, Torrance, CA, USA). The products formed were analyzed by HPLC at […]. […] The kinetic parameters (kcat and Km) were determined by using a Michaelis-Menten nonlinear regression analysis with GraphPad Prism (GraphPad Software, San Diego, CA, USA).

[4] = system: human liver microsomes (HLMs); experiment: Time course of oxidation of tenatoprazole and tenatoprazole sulfide by human liver microsomes (HPLC); format: in vitro ADME; conditions: for tenatoprazole remained: substrate tenatoprazole 500 μM
Procedure: A racemate of tenatoprazole was used in this work because the chiral tenatoprazoles currently are not commercially available. The reactions using HLMs contained incubation at 37 °C in 0.25 mL mixtures containing P450 (0.5 mg protein/mL) in 100 mM potassium phosphate buffer (pH 7.4), an NADPH-generating system (NGS, final concentration of 10 mM glucose-6-phosphate, 0.50 mM NADP^+, 1.0 IU yeast glucose-6-phosphate dehydrogenase per mL), and 0.1 mM of tenatoprazole or tenatoprazole sulfide. Incubations generally were performed for 2 h in the presence or absence of the NGS. Tenatoprazole and its metabolites were extracted twice using cold ethyl acetate as an organic solvent. Then centrifugation (1000× g, 20 min) was done to separate the organic layer from the aqueous layer. Omeprazole was added to this solution as an internal standard (IS) at a final 20 μM concentration. The organic layer was concentrated under nitrogen gas stream. The dried residues were then dissolved in the mobile phase (180 μL) and 30 μL was injected onto the column.
High-performance liquid chromatography (HPLC) was performed on the basis of a previously developed method for tenatoprazole and its metabolites, as described elsewhere. The analytical column was a Gemini C18 column (4.6 × 150 mm, 5 μm; Phenomenex), and the HPLC mobile phase consisted of acetonitrile and 5 mM potassium phosphate buffer (pH 7.3) (25:75, v/v). The substrate and its metabolites were detected at A302. The HPLC profile of the authentic compounds (i.e., tenatoprazole and its metabolites) were measured to compare to identify the major metabolites of tenatoprazole and tenatoprazole sulfide produced by HLMs.
The time course of the oxidation of tenatoprazole and tenatoprazole sulfide by HLMs (0.5 mg protein/mL) was analyzed to the estimated yield of metabolites and percentage of each metabolite using 0.60 mM substrate in 0.25 mL of 0.10 M potassium phosphate buffer (pH 7.4). After NGS was added to initiate the reaction, the samples were incubated for the designated time (i.e., 2, 5, 10, and 30 min, and 1, 2, 4, 8, 12, and 24 h) at 37 °C. Product formation was quantified using HPLC analysis, as mentioned above.
Calibration standard curves of tenatoprazole were made using a blank control sample (a reaction mixture without substrate and IS) and 12 samples containing tenatoprazole and omeprazole (IS) covering the concentration ranges of 1–500 μM, as described previously. The peak area ratio of tenatoprazole to IS was linear with respect to the analyte concentration over the range of 1–500 μM. The metabolites were quantified by comparing the peak areas of each metabolite to the mean peak areas of the IS (20 μM omeprazole).

[5] = set-up: method as in PMID 23205582; conditions: compared with other PPIs such as lansoprazole and omeprazole; cited from earlier work
[6] = target: T3, CYP2C9 (Homo sapiens, UniProt P11712); experiment: Tenatoprazole oxidation by recombinant CYP2C9; format: in vitro ADME; conditions: substrate tenatoprazole 0.10 mM, 0.20 μM CYP2C9
T3 construct: made in house; host or cells: Escherichia coli (membrane fractions)
T3 sequence (P11712 whole entry): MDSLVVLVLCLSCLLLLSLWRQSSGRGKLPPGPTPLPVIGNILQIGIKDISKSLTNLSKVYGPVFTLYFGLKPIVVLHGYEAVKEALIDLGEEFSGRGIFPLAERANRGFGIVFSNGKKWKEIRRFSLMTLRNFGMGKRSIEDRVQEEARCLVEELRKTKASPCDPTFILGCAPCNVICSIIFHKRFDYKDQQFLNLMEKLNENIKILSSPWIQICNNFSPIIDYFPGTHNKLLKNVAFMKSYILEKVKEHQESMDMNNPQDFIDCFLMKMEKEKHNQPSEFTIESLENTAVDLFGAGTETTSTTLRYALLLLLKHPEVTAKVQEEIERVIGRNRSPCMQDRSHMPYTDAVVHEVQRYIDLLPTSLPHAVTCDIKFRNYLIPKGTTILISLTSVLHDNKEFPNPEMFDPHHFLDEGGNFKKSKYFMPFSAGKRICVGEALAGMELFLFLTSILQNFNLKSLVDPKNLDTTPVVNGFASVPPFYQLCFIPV
Procedure: (§1) Pooled liver microsomes from human samples were obtained from ThermoFisher Scientific (Waltham, MA, USA). Recombinant human P450s were heterologously expressed in Escherichia coli with a pCW vector containing human P450 cDNA (CYP 3A4, 2C9, 2C19, 1A2, 1B1, 2E1, 2D6, and 2A6) and rat NADPH-P450 reductase (CPR). Membrane fractions expressing both P450 and CPR of E. coli were prepared as described previously and were used for the catalytic activity assays.
(§2) The reaction mixture included 0.20 μM P450, 0.40 μM CPR, and tenatoprazole (0.10 mM) in 0.25 mL of 0.10 M potassium phosphate buffer (pH 7.4). The reaction was started by adding NGS and the incubation was continued for the indicated time at 37 °C. Incubation was then stopped by adding ice-chilled ethyl acetate (0.50 mL) and omeprazole (IS) was added to a final concentration of 20 μM. The mixtures were vortexed for 2 min, centrifuged at 1000× g for 20 min, and then the organic layer was taken for drying under nitrogen gas stream. The residues were dissolved in 180 μL of HPLC mobile phase and 30 μL was injected onto a Gemini C18 column (4.6 × 150 mm, 5 μm; Phenomenex, Torrance, CA, USA). The products formed were analyzed by HPLC at A302. […]

[7] = target: T4, CYP1A2 (Homo sapiens, UniProt P05177); experiment: Tenatoprazole oxidation by recombinant CYP1A2; format: in vitro ADME; conditions: substrate tenatoprazole 0.10 mM, 0.20 μM CYP1A2; no apparent formation
T4 construct: made in house; host or cells: Escherichia coli (membrane fractions)
T4 sequence (P05177 1-516): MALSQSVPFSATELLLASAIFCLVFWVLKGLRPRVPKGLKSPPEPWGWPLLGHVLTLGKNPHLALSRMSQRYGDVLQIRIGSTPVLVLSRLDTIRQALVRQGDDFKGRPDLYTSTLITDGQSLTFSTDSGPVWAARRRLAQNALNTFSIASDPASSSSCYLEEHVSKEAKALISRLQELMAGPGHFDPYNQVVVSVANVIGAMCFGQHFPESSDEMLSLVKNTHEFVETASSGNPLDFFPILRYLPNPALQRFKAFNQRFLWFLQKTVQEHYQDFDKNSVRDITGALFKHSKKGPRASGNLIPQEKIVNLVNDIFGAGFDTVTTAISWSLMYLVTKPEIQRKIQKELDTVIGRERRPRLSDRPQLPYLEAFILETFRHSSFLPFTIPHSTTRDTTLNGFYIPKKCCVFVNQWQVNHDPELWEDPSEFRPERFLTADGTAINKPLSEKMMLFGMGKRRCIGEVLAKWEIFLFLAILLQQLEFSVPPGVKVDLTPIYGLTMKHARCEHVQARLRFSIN
Procedure: as §1
(§3) The reaction mixture included 0.20 μM P450, 0.40 μM CPR, and tenatoprazole (0.10 mM) in 0.25 mL of 0.10 M potassium phosphate buffer (pH 7.4). The reaction was started by adding NGS and the incubation was continued for the indicated time at 37 °C. Incubation was then stopped by adding ice-chilled ethyl acetate (0.50 mL) and omeprazole (IS) was added to a final concentration of 20 μM. The mixtures were vortexed for 2 min, centrifuged at 1000× g for 20 min, and then the organic layer was taken for drying under nitrogen gas stream. The residues were dissolved in 180 μL of HPLC mobile phase and 30 μL was injected onto a Gemini C18 column (4.6 × 150 mm, 5 μm; Phenomenex, Torrance, CA, USA). The products formed were analyzed by HPLC at A302. The HPLC profile of the authentic chemicals (i.e., tenatoprazole, tenatoprazole sulfide, and their metabolites) were used to identify the major metabolites of tenatoprazole and tenatoprazole sulfide produced by the recombinant P450s.
(§4) Figure S6. HPLC analyses of the products derived from the oxidation of tenatoprazole catalyzed by recombinant human P450s. The reaction mixture included 0.20 μM P450, 0.40 μM CPR, and 0.10 mM tenatoprazole in 0.25 mL of potassium phosphate buffer (0.10 M, pH 7.4). The reaction was started by adding an NGS at 37 °C for 60 min. (A) CYP1A2; (B) CYP1B1; (C) CYP2A6; (D) CYP2C9; (E) CYP2D6; (F) CYP2E1. The arrows with solid and broken lines indicate the retention times of 5’-OH tenatoprazole (6.6 min) and 5’-OH tenatoprazole sulfide (8.4 min), respectively.
(§5) (1 picture or pasted object on this page, not shown here)

[8] = target: T5, CYP2D6 (Homo sapiens, UniProt P10635); experiment: Tenatoprazole oxidation by recombinant CYP2D6; format: in vitro ADME; conditions: substrate tenatoprazole 0.10 mM, 0.20 μM CYP2D6
T5 construct: made in house; host or cells: Escherichia coli (membrane fractions)
T5 sequence (P10635 whole entry): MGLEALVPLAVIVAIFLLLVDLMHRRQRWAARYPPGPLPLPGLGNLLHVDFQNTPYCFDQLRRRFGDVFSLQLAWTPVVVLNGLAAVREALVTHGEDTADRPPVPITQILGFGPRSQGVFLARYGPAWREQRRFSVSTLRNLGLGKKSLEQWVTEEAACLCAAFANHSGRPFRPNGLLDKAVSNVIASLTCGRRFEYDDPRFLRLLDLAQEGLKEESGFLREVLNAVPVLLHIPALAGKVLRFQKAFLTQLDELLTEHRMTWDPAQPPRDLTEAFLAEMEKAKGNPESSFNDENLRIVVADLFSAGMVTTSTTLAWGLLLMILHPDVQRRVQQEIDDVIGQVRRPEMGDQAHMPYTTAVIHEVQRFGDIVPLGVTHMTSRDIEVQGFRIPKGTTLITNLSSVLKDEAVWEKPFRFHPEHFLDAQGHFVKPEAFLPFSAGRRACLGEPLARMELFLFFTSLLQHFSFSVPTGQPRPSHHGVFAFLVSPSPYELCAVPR
Procedure: as §1, §2

[9] = target: T6, CYP1B1 (Homo sapiens, UniProt Q16678); experiment: Tenatoprazole oxidation by recombinant CYP1B1; format: in vitro ADME; conditions: substrate tenatoprazole 0.10 mM, 0.20 μM CYP1B1; no apparent formation
T6 construct: made in house; host or cells: Escherichia coli (membrane fractions)
T6 sequence (Q16678 1-543): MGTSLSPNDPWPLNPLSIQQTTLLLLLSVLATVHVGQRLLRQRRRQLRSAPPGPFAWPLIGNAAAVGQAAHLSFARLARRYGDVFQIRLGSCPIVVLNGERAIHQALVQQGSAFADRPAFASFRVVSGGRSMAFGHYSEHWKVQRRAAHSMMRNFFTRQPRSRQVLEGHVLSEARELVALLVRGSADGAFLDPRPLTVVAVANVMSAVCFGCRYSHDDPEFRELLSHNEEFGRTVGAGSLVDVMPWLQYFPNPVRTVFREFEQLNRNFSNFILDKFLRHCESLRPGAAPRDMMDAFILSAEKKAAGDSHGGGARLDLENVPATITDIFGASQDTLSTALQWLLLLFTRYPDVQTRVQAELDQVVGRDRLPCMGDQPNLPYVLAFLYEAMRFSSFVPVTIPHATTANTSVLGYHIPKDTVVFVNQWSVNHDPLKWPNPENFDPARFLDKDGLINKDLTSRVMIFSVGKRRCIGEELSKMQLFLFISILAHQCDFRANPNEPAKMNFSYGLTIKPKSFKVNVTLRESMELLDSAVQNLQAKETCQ
Procedure: as §1, §3, §4, §5

[10] = target: T7, CYP2A6 (Homo sapiens, UniProt P11509); experiment: Tenatoprazole oxidation by recombinant CYP2A6; format: in vitro ADME; conditions: substrate tenatoprazole 0.10 mM, 0.20 μM CYP2A6; no apparent formation
T7 construct: made in house; host or cells: Escherichia coli (membrane fractions)
T7 sequence (P11509 1-494): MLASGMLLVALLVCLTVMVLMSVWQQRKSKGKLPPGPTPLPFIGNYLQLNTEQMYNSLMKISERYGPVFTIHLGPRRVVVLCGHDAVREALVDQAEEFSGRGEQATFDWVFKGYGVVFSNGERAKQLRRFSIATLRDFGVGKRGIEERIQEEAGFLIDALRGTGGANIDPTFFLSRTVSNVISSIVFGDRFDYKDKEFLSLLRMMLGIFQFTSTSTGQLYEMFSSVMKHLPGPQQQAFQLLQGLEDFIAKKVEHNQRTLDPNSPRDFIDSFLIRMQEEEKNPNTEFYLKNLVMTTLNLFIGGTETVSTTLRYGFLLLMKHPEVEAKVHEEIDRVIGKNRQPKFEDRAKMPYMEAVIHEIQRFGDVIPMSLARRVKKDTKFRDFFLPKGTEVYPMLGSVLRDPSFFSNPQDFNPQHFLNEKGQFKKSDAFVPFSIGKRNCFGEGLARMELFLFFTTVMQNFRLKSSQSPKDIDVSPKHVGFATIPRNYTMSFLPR
Procedure: as §1, §3, §4, §5

[11] = target: T8, CYP2E1 (Homo sapiens, UniProt P05181); experiment: Tenatoprazole oxidation by recombinant CYP2E1; format: in vitro ADME; conditions: substrate tenatoprazole 0.10 mM, 0.20 μM CYP2E1; no apparent formation
T8 construct: made in house; host or cells: Escherichia coli (membrane fractions)
T8 sequence (P05181 whole entry): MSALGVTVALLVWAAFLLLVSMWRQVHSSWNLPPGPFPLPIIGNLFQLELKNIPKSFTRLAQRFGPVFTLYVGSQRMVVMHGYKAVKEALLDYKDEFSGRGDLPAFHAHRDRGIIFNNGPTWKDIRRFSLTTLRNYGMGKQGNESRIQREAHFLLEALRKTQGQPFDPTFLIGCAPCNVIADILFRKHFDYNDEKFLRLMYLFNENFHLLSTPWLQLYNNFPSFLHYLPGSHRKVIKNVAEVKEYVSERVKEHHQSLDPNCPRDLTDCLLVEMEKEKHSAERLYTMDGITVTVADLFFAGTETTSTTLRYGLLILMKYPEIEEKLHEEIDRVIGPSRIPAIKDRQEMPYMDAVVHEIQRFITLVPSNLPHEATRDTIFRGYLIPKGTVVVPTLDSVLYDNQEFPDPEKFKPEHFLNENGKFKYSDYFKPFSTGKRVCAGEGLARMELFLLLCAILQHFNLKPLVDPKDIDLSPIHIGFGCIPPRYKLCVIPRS
Procedure: as §1, §3, §4, §5

[12] = set-up: method as in PMID 27640009; conditions: neutral pH; cited from earlier work

SMILES: COc1ccc2[nH]c([S@@+]([O-])Cc3ncc(C)c(OC)c3C)nc2n1 [S-tenatoprazole]
- rate of metabolism of S-isomer relative to R-isomer [1]: around seven times more slowly
- kcat of product formation [2]: 0.045 s⁻¹ and 0.045 ± 0.0033 s⁻¹

SMILES: COc1ccc2[nH]c([S+]([O-])Cc3ncc(C)c(OC)c3C)nc2n1 (stereo not drawn) [tenatoprazole, Tenatoprazole]
- sulfoxidation of tenatoprazole by CYP2C19 ([3]; recombinant CYP2C19, substrate tenatoprazole): did not catalyze
- tenatoprazole remained ([4]; HLM reaction mixture without NADPH, after 12 h): 4.4%
- tenatoprazole remained ([4]; HLMs, presence of NADPH, 12 h of incubation, 37 °C): 1.0%
- product formed from tenatoprazole sulfide (% of substrate) ([4]; substrate tenatoprazole sulfide 500 μM, HLMs, presence of NADPH, after 12 h): 0.49%
- plasma half-life, times longer than those of other PPI drugs [5]: ~7 times

SMILES: COc1ccc2[nH]c(SCc3ncc(CO)c(OC)c3C)nc2n1 [5′-OH tenatoprazole sulfide]
- kcat of product formation ([3]; substrate tenatoprazole (1–500 μM), recombinant CYP2C19 0.20 μM, 37 °C, 5 min, label = product formed): 0.0333 s⁻¹ and 0.0333 ± 0.0017 s⁻¹
- formation rate of metabolite [6]: 0.1 min⁻¹
- formation rate of metabolite [7]: < 0.05 nmol product/min/nmol P450
- formation rate of metabolite [8]: 0.3 min⁻¹
- formation rate of metabolite [9]: < 0.05 nmol product/min/nmol P450
- formation rate of metabolite [10]: < 0.05 nmol product/min/nmol P450
- formation rate of metabolite [11]: < 0.05 nmol product/min/nmol P450

SMILES: COc1ccc2[nH]c([S+]([O-])Cc3ncc(C)c(OC)c3C)nc2c1 (stereo not drawn) [omeprazole, Omeprazole]
- spontaneous or nonenzymatic degradation to omeprazole sulfide [12]: not spontaneously or nonenzymatically degraded
